The test system of data set [1] is conscious spontaneously hypertensive rats. Nature of the data set: Antihypertensive activity in conscious spontaneously hypertensive rats. It is filed as in vivo, rat (spontaneously hypertensive Okamoto strain). The protocol:
Male albino rats, spontaneously hypertensive Okamoto strain, fasting 16 hours before the experiments were used. The conscious animals were restrained in a plastic cage and a cuff was secured around the tail. The cuff was connected with an electronic blood pressure recorder. The systolic blood pressure and the heart rate were measured before and 2, 4, 6, and 24 hours after the administration of compounds. The compounds were suspended or dissolved in carboxymethylcellulose 0.5%. […] There are also included, for comparison, the results obtained under the same experimental conditions with some known antihypertensive drugs, and the approximate oral LD50 in mice are stated.

Data set [2] is described as follows: in vivo. Particulars: mouse.
For data set [3], the system named is conscious normotensive dogs. Nature of the data set: Hypotensive activity in conscious normotensive dogs. It is filed as in vivo, dog (mongrel). Particulars: 0.1 mg/kg oral. The protocol:
Hypotensive activity in conscious normotensive dogs
Mongrel dogs of both sexes, fasting 16 hours before the experiment were used. […] The compounds were orally administered in gelatine capsules.

Molecules are shown by their SMILES.

Usually LD50 stands for the dose expected to kill half of the subjects tested.

Consider `CCCC(C)(C)NC(=NC#N)Nc1cccnc1` [P 1067, N"-cyano-N-(1,1-dimethylbutyl)-N'-3-pyridylcuanidine], for which the BP in data set [1] (0.5 mg/kg, 2 hours) was 158 mm Hg; in data set [1] (0.5 mg/kg, 4 hours), 168 mm Hg; in data set [1] (0.5 mg/kg, 24 hours), 176 mm Hg. The HR in data set [1] (0.5 mg/kg, 2 hours) is listed as 440 beats/minute; in data set [1] (0.5 mg/kg, 4 hours) it was 413 beats/minute; in data set [1] (0.5 mg/kg, 24 hours), 408 beats/minute. The LD50 in data set [2] (po) was > 1000 mg/kg.
With `CCC(C)(C)NC(=NC#N)Nc1cccnc1` [P 1075, N"-cyano-N-tert-pentyl-N'-3-pyridylguanidine], the BP is 72 mm Hg in data set [3] (Dog I, 1 hour); 75 mm Hg in data set [3] (Dog I, 2 hours); 85 mm Hg in data set [3] (Dog I, 3 hours); 95 mm Hg in data set [3] (Dog I, 4 hours); 82 mm Hg in data set [3] (Dog II, 1 hour); 74 mm Hg in data set [3] (Dog II, 2 hours). For the same molecule, the BP in data set [3] (Dog II, 3 hours) is 92 mm Hg; in data set [3] (Dog II, 4 hours), 115 mm Hg; in data set [3] (Dog III, 1 hour), 95 mm Hg; in data set [3] (Dog III, 2 hours), 90 mm Hg; in data set [3] (Dog III, 3 hours) it was 104 mm Hg; in data set [3] (Dog III, 4 hours), 110 mm Hg. For the same molecule, the BP in data set [1] (0.05 mg/kg, 2 hours) is 105 mm Hg; in data set [1] (0.05 mg/kg, 4 hours), 102 mm Hg; in data set [1] (0.05 mg/kg, 24 hours), 164 mm Hg. Moreover, the HR in data set [3] (Dog I, 1 hour) is listed as 160 beats/minute; in data set [3] (Dog I, 2 hours), 180 beats/minute; in data set [3] (Dog I, 3 hours), 142 beats/minute; in data set [3] (Dog I, 4 hours), 135 beats/minute; in data set [3] (Dog II, 1 hour), 175 beats/minute; in data set [3] (Dog II, 2 hours), 185 beats/minute. In addition, the HR turned out to be 163 beats/minute in data set [3] (Dog II, 3 hours); 140 beats/minute in data set [3] (Dog II, 4 hours); 185 beats/minute in data set [3] (Dog III, 1 hour); 175 beats/minute in data set [3] (Dog III, 2 hours); 149 beats/minute in data set [3] (Dog III, 3 hours); 140 beats/minute in data set [3] (Dog III, 4 hours). For the same molecule, the HR in data set [1] (0.05 mg/kg, 2 hours) is recorded as 450 beats/minute; in data set [1] (0.05 mg/kg, 4 hours), 432 beats/minute; in data set [1] (0.05 mg/kg, 24 hours) it was 348 beats/minute. This molecule gave an LD50 in data set [2] (po, p.o. (mice), approximate) of 1000 mg/kg.
In the case of `NNc1nncc2ccccc12` [Hydralazine, reference compound], the BP in data set [1] (2.0 mg/kg, 2 hours) is 162 mm Hg; in data set [1] (2.0 mg/kg, 4 hours), 163 mm Hg; in data set [1] (2.0 mg/kg, 24 hours), 174 mm Hg; in data set [1] (5.0 mg/kg, 2 hours), 150 mm Hg; in data set [1] (5.0 mg/kg, 4 hours), 152 mm Hg; in data set [1] (5.0 mg/kg, 24 hours), 170 mm Hg. For the same molecule, the HR is on record as 425 beats/minute in data set [1] (2.0 mg/kg, 2 hours); 413 beats/minute in data set [1] (2.0 mg/kg, 4 hours); 379 beats/minute in data set [1] (2.0 mg/kg, 24 hours); 405 beats/minute in data set [1] (5.0 mg/kg, 2 hours); 410 beats/minute in data set [1] (5.0 mg/kg, 4 hours); 380 beats/minute in data set [1] (5.0 mg/kg, 24 hours). The molecule also returned an LD50 in data set [2] (mice, oral, printed with (114-130)) of 122 mg/kg.
As for `N=c1nc(N2CCCCC2)cc(N)n1O` [Minoxidil, 6-Amino-1,2-dihydro-1-hydroxy-2-imino-4-piperid-1-ylpyrimidine, reference compound], the BP in data set [1] (0.5 mg/kg, 2 hours) is 161 mm Hg; in data set [1] (0.5 mg/kg, 4 hours), 153 mm Hg; in data set [1] (0.5 mg/kg, 24 hours), 167 mm Hg; in data set [1] (1.0 mg/kg, 2 hours) it was 158 mm Hg; in data set [1] (1.0 mg/kg, 4 hours), 146 mm Hg; in data set [1] (1.0 mg/kg, 24 hours), 169 mm Hg. The HR stood at 409 beats/minute in data set [1] (0.5 mg/kg, 2 hours); 411 beats/minute in data set [1] (0.5 mg/kg, 4 hours); 400 beats/minute in data set [1] (0.5 mg/kg, 24 hours); 431 beats/minute in data set [1] (1.0 mg/kg, 2 hours); 424 beats/minute in data set [1] (1.0 mg/kg, 4 hours); 407 beats/minute in data set [1] (1.0 mg/kg, 24 hours).
Take `CCC(C)(CC)NC(=NC#N)Nc1cccnc1` [P 1066, N"-cyano-N-(1-ethyl-1-methylpropyl)-N'-3-pyridylguanidine]: the BP in data set [1] (0.05 mg/kg, 2 hours) was 155 mm Hg; in data set [1] (0.05 mg/kg, 4 hours), 170 mm Hg; in data set [1] (0.05 mg/kg, 24 hours), 178 mm Hg; in data set [1] (0.5 mg/kg, 2 hours), 146 mm Hg; in data set [1] (0.5 mg/kg, 4 hours), 143 mm Hg; in data set [1] (0.5 mg/kg, 24 hours), 181 mm Hg. For the same molecule, the BP in data set [1] (2.5 mg/kg, 2 hours) is reported as 113 mm Hg; in data set [1] (2.5 mg/kg, 4 hours), 100 mm Hg; in data set [1] (2.5 mg/kg, 6 hours), 114 mm Hg; in data set [1] (2.5 mg/kg, 24 hours), 152 mm Hg; in data set [1] (10.0 mg/kg, 2 hours), < 100 mm Hg; in data set [1] (10.0 mg/kg, 4 hours), < 100 mm Hg. The BP is recorded as < 100 mm Hg in data set [1] (10.0 mg/kg, 6 hours) and 126 mm Hg in data set [1] (10.0 mg/kg, 24 hours). The HR in data set [1] (0.05 mg/kg, 2 hours) was found to be 462 beats/minute; in data set [1] (0.05 mg/kg, 4 hours), 417 beats/minute; in data set [1] (0.05 mg/kg, 24 hours), 413 beats/minute; in data set [1] (0.5 mg/kg, 2 hours), 437 beats/minute; in data set [1] (0.5 mg/kg, 4 hours) it was 413 beats/minute; in data set [1] (0.5 mg/kg, 24 hours), 413 beats/minute. Also, the HR in data set [1] (2.5 mg/kg, 2 hours) turned out to be 386 beats/minute; in data set [1] (2.5 mg/kg, 6 hours) it was 375 beats/minute; in data set [1] (2.5 mg/kg, 24 hours), 335 beats/minute; in data set [1] (10.0 mg/kg, 24 hours), 336 beats/minute. Also, the LD50 in data set [2] (po, p.o. (mice), approximate) is > 1000 mg/kg.
Take `CCC(CC)(CC)NC(=NC#N)Nc1cccnc1` [P 1068, N"-cyano-N-(1,1-diethylpropyl)-N'-3-pyridylguanidine]: the BP in data set [1] (0.5 mg/kg, 2 hours) turned out to be 131 mm Hg; in data set [1] (0.5 mg/kg, 4 hours) it was 146 mm Hg; in data set [1] (0.5 mg/kg, 24 hours) it was 180 mm Hg. In addition, the HR amounted to 473 beats/minute in data set [1] (0.5 mg/kg, 2 hours); 437 beats/minute in data set [1] (0.5 mg/kg, 4 hours); 383 beats/minute in data set [1] (0.5 mg/kg, 24 hours). The LD50 in data set [2] (po, p.o. (mice), approximate) is > 1000 mg/kg.

For the origin of these results see US4057636A, “Antihypertensive pyridylguanidine compounds” (Leo Pharmaceutical Products Ltd. A/S, priority 1974, dated 1977).
